In ChEMBL document CHEMBL1201862, “PubChem BioAssay data set” (2004):
Active and inactive are the calls of the source.

Experiments:
Coagulation factor XII = molecular target: T1, Coagulation factor XII (Homo sapiens, UniProt P00748); type: functional;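 note: activated factor XIIa alpha cleaving a fluorogenic AMC peptide substrate; inhibitor potency from loss of enzyme activity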
T1 sequence (P00748 whole entry): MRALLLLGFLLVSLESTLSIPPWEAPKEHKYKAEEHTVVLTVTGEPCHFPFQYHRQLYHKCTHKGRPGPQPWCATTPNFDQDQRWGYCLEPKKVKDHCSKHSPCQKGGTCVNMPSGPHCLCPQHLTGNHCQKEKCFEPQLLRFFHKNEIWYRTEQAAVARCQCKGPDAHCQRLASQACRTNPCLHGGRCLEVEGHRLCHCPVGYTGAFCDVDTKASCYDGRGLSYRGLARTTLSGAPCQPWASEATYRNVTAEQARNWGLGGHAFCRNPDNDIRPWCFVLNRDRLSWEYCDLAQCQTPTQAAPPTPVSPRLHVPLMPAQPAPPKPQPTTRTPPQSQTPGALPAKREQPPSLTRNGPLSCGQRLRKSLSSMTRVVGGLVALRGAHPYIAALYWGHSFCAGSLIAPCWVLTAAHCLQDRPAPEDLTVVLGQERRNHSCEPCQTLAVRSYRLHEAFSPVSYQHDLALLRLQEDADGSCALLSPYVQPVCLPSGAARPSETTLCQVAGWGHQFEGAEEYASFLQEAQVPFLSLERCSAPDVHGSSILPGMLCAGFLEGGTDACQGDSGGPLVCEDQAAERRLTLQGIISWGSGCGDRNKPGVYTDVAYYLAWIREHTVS

[1] = P. falciparum late gametocyte killing, dose response, luminescence (AID 1117278); type: functional, cell-based;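 note: gametocytes exposed to compound for 24 hours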
[2] = Jurkat T cell cytotoxicity, dose response, cytotoxicity control for P. falciparum gametocyte viability project, luminescence (AID 1117277); type: functional, cell-based;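 note: potency reflects loss of cellular ATP meaning fewer viable cells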
[3] = A549 cell cytotoxicity, dose response, cytotoxicity control, plate reader, cherry-pick, antagonist series (AID 743412); type: functional, cell-based
[4] = HepG2 cell cytotoxicity, dose response, cytotoxicity control, plate reader, cherry-pick, antagonist series (AID 743416); type: functional, cell-based
[5] = LGR2 antagonists, dose response, cell-based, HEK293, CRE-luciferase reporter, cherry pick, set 2 (AID 743343); type: functional;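 note: transfected cells were stimulated with diluted bursicon conditioned medium after compound addition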
[6] = MC4R antagonists, dose response, counter-screen for LGR2 antagonist project, cell-based, plate reader, cherry pick (AID 743444); type: functional;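 note: transfected HEK 293 cells stimulated with alpha-MSH peptide; potency of inhibitors of the alpha-MSH evoked signal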
[7] = HEK293 cell cytotoxicity, dose response, cytotoxicity control, plate reader, cherry-picked samples (AID 743446); type: functional, cell-based
Paired box protein Pax-8 = Paired box protein Pax-8 (Homo sapiens, UniProt Q06710); assay: inhibitors of PAX8-driven TPO luciferase reporter, dose response, RMG-I cells, cherry-pick (AID 687027); type: functional, cell-based;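 note: luciferase reporter driven by Pax8 target thyroperoxidase promoter measured by SteadyGlo luminescence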
Sequence of Paired box protein Pax-8 (Q06710 whole entry): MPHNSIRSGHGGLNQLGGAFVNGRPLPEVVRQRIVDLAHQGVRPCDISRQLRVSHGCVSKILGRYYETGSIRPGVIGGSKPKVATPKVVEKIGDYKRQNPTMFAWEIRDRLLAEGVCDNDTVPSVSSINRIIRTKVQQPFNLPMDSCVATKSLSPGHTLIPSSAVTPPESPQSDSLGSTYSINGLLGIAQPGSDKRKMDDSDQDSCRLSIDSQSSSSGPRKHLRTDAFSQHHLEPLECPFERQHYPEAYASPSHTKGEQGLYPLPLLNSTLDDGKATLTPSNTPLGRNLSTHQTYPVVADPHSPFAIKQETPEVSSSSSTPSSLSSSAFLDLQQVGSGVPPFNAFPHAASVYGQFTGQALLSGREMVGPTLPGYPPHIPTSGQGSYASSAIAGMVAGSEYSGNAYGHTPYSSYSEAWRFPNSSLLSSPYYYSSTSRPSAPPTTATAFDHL

[8] = molecular target: T2, DNA repair protein RAD52 homolog (Homo sapiens, UniProt P43351); type: functional, biochemical
T2 sequence (P43351 whole entry): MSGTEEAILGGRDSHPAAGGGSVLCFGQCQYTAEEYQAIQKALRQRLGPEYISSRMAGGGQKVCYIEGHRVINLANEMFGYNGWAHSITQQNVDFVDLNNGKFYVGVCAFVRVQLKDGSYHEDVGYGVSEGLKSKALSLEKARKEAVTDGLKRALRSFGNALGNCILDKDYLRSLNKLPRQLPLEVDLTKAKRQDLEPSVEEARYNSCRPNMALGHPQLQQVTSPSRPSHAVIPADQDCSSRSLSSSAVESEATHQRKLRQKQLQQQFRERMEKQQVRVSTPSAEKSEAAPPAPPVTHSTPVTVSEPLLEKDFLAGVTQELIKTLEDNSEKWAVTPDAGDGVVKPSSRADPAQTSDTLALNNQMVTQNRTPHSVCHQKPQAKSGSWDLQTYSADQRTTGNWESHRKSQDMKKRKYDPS

[9] = molecular target: T3, Replicative DNA helicase DnaB (Mycobacterium tuberculosis, UniProt P9WMR3); assay: DnaB intein splicing inhibitors, dose response, biochemical, cell-free fluorescence (AID 449749); type: functional
T3 sequence (P9WMR3 whole entry): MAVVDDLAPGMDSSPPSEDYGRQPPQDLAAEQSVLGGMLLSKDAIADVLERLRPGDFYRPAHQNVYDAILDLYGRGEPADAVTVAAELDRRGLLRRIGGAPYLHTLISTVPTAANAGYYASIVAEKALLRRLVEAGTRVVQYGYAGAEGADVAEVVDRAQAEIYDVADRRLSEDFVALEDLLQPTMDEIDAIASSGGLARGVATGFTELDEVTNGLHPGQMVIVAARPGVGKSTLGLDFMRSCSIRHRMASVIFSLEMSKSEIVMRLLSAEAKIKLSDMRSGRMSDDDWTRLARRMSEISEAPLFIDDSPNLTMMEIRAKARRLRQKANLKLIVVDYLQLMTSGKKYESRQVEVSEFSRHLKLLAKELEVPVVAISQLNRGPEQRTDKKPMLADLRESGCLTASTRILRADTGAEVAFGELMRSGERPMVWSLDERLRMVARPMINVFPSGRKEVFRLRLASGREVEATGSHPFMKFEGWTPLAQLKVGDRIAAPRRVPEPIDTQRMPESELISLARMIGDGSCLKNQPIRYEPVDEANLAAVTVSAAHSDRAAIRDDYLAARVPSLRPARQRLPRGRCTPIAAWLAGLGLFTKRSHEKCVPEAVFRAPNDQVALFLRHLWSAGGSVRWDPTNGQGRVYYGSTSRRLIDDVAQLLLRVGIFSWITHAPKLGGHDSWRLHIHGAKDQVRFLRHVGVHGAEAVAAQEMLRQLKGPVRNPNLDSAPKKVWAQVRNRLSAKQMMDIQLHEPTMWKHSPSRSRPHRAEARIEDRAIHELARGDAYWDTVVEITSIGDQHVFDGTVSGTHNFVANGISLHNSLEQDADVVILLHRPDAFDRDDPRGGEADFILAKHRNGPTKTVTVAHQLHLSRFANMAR

Protein RecA = molecular target: T4, Protein RecA (Mycobacterium tuberculosis, UniProt P9WHJ3); assay: Fluorescence Cell-Free Homogeneous Dose Retest to Identify Inhibitors of RecA-Intein Splicing Activity. [Related pubchem assays (depositor defined):AID2097, AID2223, AID489010, AID492950]; type: functional
T4 sequence (P9WHJ3 whole entry): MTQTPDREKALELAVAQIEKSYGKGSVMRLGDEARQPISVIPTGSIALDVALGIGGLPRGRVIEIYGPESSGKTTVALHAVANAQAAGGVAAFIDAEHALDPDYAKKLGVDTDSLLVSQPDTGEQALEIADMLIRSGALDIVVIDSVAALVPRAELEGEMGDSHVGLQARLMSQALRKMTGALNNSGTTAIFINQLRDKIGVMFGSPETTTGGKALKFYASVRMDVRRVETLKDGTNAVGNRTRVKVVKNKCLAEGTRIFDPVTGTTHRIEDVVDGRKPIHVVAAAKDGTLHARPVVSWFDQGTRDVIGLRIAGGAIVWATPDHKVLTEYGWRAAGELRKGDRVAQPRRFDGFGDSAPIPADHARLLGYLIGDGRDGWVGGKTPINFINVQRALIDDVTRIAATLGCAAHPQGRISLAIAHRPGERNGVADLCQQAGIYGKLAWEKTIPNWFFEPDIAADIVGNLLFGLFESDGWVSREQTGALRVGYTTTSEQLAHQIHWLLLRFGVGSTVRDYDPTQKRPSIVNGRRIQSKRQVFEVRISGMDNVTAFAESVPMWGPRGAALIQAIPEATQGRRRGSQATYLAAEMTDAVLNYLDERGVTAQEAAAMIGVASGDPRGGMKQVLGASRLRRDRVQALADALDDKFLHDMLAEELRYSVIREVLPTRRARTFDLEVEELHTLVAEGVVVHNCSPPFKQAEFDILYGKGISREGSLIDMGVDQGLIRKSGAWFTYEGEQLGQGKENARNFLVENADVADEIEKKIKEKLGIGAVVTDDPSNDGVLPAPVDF

[10] = molecular target: T5, Mannose-6-phosphate isomerase (Homo sapiens, UniProt P34949); assay: human PMI inhibitors, high substrate, primary screen, biochemical, fluorescence intensity, high mannose 6-phosphate (AID 1220)
T5 sequence (P34949 whole entry): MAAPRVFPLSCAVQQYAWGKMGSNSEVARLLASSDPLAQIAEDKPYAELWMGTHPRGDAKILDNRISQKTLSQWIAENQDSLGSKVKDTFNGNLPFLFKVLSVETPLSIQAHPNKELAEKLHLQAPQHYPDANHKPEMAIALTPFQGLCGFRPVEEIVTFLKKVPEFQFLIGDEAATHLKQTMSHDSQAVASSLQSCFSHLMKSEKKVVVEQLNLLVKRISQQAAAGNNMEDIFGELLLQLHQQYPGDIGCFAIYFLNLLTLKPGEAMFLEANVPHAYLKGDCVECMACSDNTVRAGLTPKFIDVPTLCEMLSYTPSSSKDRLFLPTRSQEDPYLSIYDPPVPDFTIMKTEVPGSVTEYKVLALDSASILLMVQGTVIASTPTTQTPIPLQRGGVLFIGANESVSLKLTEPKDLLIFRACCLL

[11] = molecular target: Glyceraldehyde-3-phosphate dehydrogenase (Homo sapiens, UniProt P04406)
Sequence of Glyceraldehyde-3-phosphate dehydrogenase (P04406 whole entry): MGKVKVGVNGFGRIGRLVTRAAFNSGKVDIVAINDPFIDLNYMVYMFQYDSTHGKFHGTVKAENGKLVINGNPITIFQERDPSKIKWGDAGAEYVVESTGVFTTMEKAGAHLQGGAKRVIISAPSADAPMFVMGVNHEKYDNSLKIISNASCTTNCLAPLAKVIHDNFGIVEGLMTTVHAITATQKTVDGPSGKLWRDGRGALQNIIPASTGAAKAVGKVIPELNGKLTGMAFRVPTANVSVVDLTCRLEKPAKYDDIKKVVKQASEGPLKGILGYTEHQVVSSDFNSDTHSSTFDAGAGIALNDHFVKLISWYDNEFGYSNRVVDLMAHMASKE

Beta-galactosidase = Beta-galactosidase (Escherichia coli, UniProt Q8VNN2); assay: Dose response counterscreen for EBI2 assay utilizing the enzyme, b-galactosidase.; type: functional
Sequence of Beta-galactosidase (Q8VNN2 whole entry): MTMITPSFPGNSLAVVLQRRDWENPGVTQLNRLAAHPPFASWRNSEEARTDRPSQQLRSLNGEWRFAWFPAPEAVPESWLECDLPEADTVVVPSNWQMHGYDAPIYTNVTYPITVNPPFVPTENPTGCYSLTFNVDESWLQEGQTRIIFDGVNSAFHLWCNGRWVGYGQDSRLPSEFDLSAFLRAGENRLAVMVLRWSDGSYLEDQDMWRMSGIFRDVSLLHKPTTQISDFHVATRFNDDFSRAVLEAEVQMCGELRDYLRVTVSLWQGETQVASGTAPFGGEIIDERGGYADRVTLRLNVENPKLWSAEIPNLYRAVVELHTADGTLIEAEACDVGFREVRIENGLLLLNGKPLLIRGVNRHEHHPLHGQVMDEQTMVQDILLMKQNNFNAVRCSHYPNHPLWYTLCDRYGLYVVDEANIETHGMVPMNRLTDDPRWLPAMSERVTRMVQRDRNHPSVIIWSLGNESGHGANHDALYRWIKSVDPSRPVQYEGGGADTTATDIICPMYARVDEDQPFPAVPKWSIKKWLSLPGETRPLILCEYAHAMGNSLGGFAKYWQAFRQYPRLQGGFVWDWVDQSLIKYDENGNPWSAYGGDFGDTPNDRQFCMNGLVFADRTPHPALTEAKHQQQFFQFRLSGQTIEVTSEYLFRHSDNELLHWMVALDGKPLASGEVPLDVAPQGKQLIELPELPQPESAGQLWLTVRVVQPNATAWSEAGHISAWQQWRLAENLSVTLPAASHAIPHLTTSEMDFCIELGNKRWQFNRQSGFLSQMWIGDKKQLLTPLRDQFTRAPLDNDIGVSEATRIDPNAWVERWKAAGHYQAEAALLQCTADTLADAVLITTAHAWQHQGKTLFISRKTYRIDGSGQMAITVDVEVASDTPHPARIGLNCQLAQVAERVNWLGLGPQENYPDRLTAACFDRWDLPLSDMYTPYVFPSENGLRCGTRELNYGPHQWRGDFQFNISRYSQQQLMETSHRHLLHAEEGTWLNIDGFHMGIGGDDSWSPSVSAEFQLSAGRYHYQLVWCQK

[12] = molecular target: T6, Corticotropin-releasing factor receptor 2/Corticotropin-releasing factor-binding protein (Homo sapiens, UniProt P24387+Q13324); assay: Dose Response confirmation of uHTS hits for small molecule antagonists of the CRF-binding protein and CRF-R2 receptor complex.; type: functional; settings: read-out: IC50_Mean
T6 sequence (Q13324 whole entry): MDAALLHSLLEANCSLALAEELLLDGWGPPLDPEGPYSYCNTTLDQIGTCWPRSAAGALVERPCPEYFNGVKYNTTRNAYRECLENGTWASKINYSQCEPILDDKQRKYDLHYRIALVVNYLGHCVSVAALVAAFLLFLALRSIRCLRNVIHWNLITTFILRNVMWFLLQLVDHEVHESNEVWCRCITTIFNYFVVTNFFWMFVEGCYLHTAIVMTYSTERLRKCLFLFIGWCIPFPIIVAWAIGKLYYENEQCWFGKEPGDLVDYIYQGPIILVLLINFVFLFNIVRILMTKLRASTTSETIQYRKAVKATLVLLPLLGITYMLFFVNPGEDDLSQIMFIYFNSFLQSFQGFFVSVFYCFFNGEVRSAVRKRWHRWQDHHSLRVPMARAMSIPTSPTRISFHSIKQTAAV
T6 sequence (P24387 whole entry): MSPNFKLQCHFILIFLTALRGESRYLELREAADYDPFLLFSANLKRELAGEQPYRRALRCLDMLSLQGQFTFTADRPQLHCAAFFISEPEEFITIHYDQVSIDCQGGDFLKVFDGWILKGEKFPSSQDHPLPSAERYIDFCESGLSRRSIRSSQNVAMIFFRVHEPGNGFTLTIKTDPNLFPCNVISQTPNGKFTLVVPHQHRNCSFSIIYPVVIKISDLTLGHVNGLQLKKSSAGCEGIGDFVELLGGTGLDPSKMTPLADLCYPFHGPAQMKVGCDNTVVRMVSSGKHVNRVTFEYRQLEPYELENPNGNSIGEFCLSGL

[13] = molecular target: T6, Corticotropin-releasing factor receptor 2/Corticotropin-releasing factor-binding protein; assay: activators of CRF receptor 2 with binding protein – uHTS hits, confirmation (AID 602473); type: functional; settings: read-out: EC50_Mean

## O=C(Nc1ccc(Cl)c(C(F)(F)F)c1)N1CCCC(O)C1 (stereo unspecified)
Coagulation factor XII
  IC50: > 50 µM (inactive)

## NS(=O)(=O)c1ccc(Cl)cc1[N+](=O)[O-]
Coagulation factor XII
  IC50: > 50 µM (inactive)

## O=C(O)COc1ccc(NC(=O)c2cccs2)cc1
[1]
  IC50: > 109 µM (inactive)
[2]
  IC50: > 83.3 µM (inactive)

## Cn1nnnc1Sc1ncnc2scc(-c3cccc(C(F)(F)F)c3)c12
[3]
  AC50: 10.1 µM (active)
[4]
  AC50: 16.4 µM (active)
[5]
  AC50: 6.18 µM (active)
[6]
  AC50: 5.97 µM (active)
[7]
  AC50: 9.08 µM (active)
Paired box protein Pax-8
  AC50: 3.41 µM (active)

## Cc1ccc(NC(=O)c2ncn(CC(=O)N3CCN(c4ccccn4)CC3)n2)cc1C
[3]
  AC50: > 52 µM (inactive)
[4]
  AC50: > 52 µM (inactive)

## CN(C)S(=O)(=O)c1cccc(NC(=O)COC(=O)COc2ccc(Br)cc2)c1
[1]
  IC50: > 109 µM (inactive)
[2]
  IC50: > 83.3 µM (inactive)

## CC(=O)Nc1ccc(CNc2nc(NCCN(C)C)nc3cc(-c4ccccc4)sc23)cc1
[8]
  AC50: 1.37 µM (active)

## CCC(=O)NC(C)C(c1cccs1)N1CCOCC1 (stereo unspecified)
[1]
  IC50: > 109 µM (inactive)
[2]
  IC50: > 83.3 µM (inactive)

## CN(C(=O)c1ccc(S(=O)(=O)c2cccc(Cl)c2)c([N+](=O)[O-])c1)C1CCCCC1
[9]
  AC50: 5.56 µM (active)
[3]
  AC50: 15.8 µM (active)
[4]
  AC50: 16.2 µM (active)
[5]
  AC50: 5.15 µM (active)
[6]
  AC50: 7.45 µM (active)
[7]
  AC50: 13.8 µM (active)
Protein RecA
  EC50: 4.33 µM (active)

## CC(/C=C/c1ccco1)=N\NC(=O)CNc1ccc2ccccc2c1
[10]
  IC50: > 50 µM (not active)

## CC(C)CCNC(=O)c1cc(-c2ccc(Cl)cc2Cl)n[nH]1
[11]
  IC50: > 10 µM (inconclusive)

## Cc1ccc(-n2c(C)nn(Cc3ccc([N+](=O)[O-])cc3)c2=O)cc1
[1]
  IC50: > 109 µM (inactive)
[2]
  IC50: > 83.4 µM (inactive)

## Cn1c(C(=O)NCCCN2CCCCCC2)cc2c(=O)n(C)c3ccccc3c21
[8]
  AC50: 12.4 µM (active)

## COc1cc(C(N)=O)cc(Cl)c1OC
Coagulation factor XII
  IC50: > 50 µM (inactive)

## O=C(COc1ccc2ccccc2c1)N1CCN(C(=O)c2ccc([N+](=O)[O-])cc2)CC1
Beta-galactosidase
  IC50: > 80 µM (inactive)
[12]
  IC50: > 47.1 µM (inactive)
[13]
  EC50: > 53 µM (inactive)

## Cc1nn(CCCC(=O)O)c(C)c1[N+](=O)[O-]
[1]
  IC50: > 109 µM (inactive)
[2]
  IC50: > 83.4 µM (inactive)

## CC(=O)NS(=O)(=O)c1ccc(NC(=S)NC(=O)c2ccco2)cc1
Coagulation factor XII
  IC50: > 50 µM (inactive)
